A word on the pIC50: it is −log10 of the IC50, conventionally taken in molar units.

This note sets out measurements from US20130029981A1, “COMPOUNDS, COMPOSITIONS, AND METHODS FOR CONTROLLING BIOFILMS” (Katholieke Universiteit Leuven, priority 2009, published 2013).

Type in all cases: cell-based
For test [1], the system named is Pseudomonas aeruginosa PA14. Description: Static peg assay for prevention of biofilm formation (Calgary device, crystal violet). The procedure, abridged: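 P. aeruginosa PA14 overnight TSB culture diluted 1:100 into broth with two-fold compound dilutions, biofilms grown 24 h static on polystyrene pegs of a Calgary device at 25 °C (TSB 1/20), 30 °C or 37 °C (CFA and/or LBNS). Biofilm quantified by crystal violet, extracted with 30% acetic acid, A570.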

Test [2] has as its system Pseudomonas aeruginosa PA14. The test is described as follows: Antibacterial activity: growth inhibition, OD600 after 24 h (GIC50). The note with it: 25° C. The protocol: (§1) Starting from a 40 mM stock solution of each compound in DMSO, two-fold serial dilutions in 100 μl liquid broth per well were prepared in dublicate in sterile transparant microtiter plates. The broth used was TSB 1/20 for measurements at 25° C. and CFA (in case of Salmonella Typhimurium) and LBNS (in case of Pseudomonas aeruginosa) for measurements at 37° C. Subsequently an overnight culture of the bacteria (S. Typhimurium ATCC14028 or P. aeruginosa PA14) was diluted 1/200 into the corresponding liquid broth and 100 μl was added to each well of the microtiterplate resulting in a total amout of 200 μl medium per well. After an incubation of 24 hours the optical density at 600 nm of each well was determined with a microtiter plate reader (VERSAmax, Molecular Devices).
Evaluation of antibacterial-inhibitory activity of some substituted imidazo[1,2-a]pyrimidinium bromide salts of the invention was carried out by diluting an overnight culture of Salmonella Typhimurium ATCC14028 or Pseudomonas aeruginosa PA141/200 into liquid medium. 200 μl of the diluted overnight culture was added to each well of a microtiterplate together with different concentrations of the test compound (1/2 dilution series of the compound). After an incubation of 24 hours the optical density at 600 nm of each well was determined with a microtiter plate reader. […] The GIC50 values of representative compounds for antibacterial activity are shown in the following Tables 9 and 10 (wherein Ph stands for phenyl, Me for methyl): […]

The subject of test [3] is Salmonella Typhimurium ATCC 14028. The description is as above. The note with it: 25° C. The protocol: Evaluation of antibacterial-inhibitory activity of some substituted 2-amino-1H-imidazoles of the invention was carried out by diluting an overnight culture of Salmonella Typhimurium ATCC 14028 into a liquid medium. 200 μl of the diluted overnight culture was added to each well of a microtiter plate together with different concentrations of the test compound (1/2 dilution series of the compound). After an incubation of 24 hours the optical density at 600 nm of each well was determined with a microtiter plate reader.
as §1
Evaluation of antibacterial-inhibitory activity of some substituted imidazo[1,2-a]pyrimidinium bromide salts of the invention was carried out by diluting an overnight culture of Salmonella Typhimurium ATCC14028 or Pseudomonas aeruginosa PA141/200 into liquid medium. 200 μl of the diluted overnight culture was added to each well of a microtiterplate together with different concentrations of the test compound (1/2 dilution series of the compound). After an incubation of 24 hours the optical density at 600 nm of each well was determined with a microtiter plate reader.

Where [4] appears, read: 25° C., Table 12, read-out: IC50 (biofilm formation).
[5] abbreviates: 25° C., Table 14, read-out: IC50 biofilm inhibition.
[6] abbreviates: 25° C., Table 18, read-out: P. aeruginosa IC50 (biofilm formation).
Where [7] appears, read: 37° C., read-out: IC50 (biofilm formation).

pIC50: −log10 of the molar value.

With `O=[N+]([O-])c1ccc(C2(O)C[n+]3cccnc3N2C2CCCCCCCCCCC2)cc1.[Br-]` (stereo not shown) [Compound 69], the pIC50 was 5.20 in test [1] (setting [4]); 5.20 in test [1] (setting [5]); 5.16 in test [1] (setting [6]); 4.74 in test [1] (setting [7]); 5.05 in test [2]; above 5.22 in test [3].
Consider `OC1(c2ccc(-c3ccccc3)cc2)C[n+]2cccnc2N1C1CCCC1.[Br-]` (stereo not shown) [R1=Cyclopentyl, R3=4-biphenylyl, R4=H, 1-cyclopentyl-2-hydroxy-2-(4-biphenylyl)-2,3-dihydro-1H-imidazo[1,2-a]pyrimidin-4-ium bromide], for which the negative-log IC50 (pIC50) in test [1] (Pseudomonas aeruginosa, PA14, 25° C., Table 12, read-out: IC50 (biofilm formation)) is 5.80; in test [1] (Pseudomonas aeruginosa, PA14, 25° C., Table 14, read-out: IC50 biofilm inhibition) it was 5.80; in test [1] (Pseudomonas aeruginosa, PA14, 37° C., read-out: IC50 (biofilm formation)) it was 4.21; in test [2] (Pseudomonas aeruginosa, PA14), 4.57; in test [3] (Salmonella enterica), 4.30 to 4.60.
Regarding `OC1(c2ccc(Cl)cc2)C[n+]2cccnc2N1C1CCCCC1.[Br-]` (stereo not shown) [Compound 64], the pIC50 in test [1] (setting [4]) was 5.31; in test [1] (setting [5]), 5.31; in test [1] (setting [6]), 5.00; in test [2] it was 4.21; in test [3], 4.00 to 4.30.
In the case of `CCCCCCN1c2nccc[n+]2CC1(O)c1ccc([N+](=O)[O-])cc1.[Br-]` (stereo not shown) [Compound 34], the negative logarithm of the IC50 (pIC50) in test [1] (25° C., 24 hours, Table 15, read-out: (2) IC50 (biofilm inhibition)) is 4.96; in test [1] (25° C., Table 16, read-out: P. aeruginosa IC50 (biofilm formation)) it was 4.91; in test [3] it was 3.70 to 4.00.
Turning to `OC1(c2ccc(I)cc2)C[n+]2cccnc2N1Cc1ccccc1.[Br-]` (stereo not shown) [Compound 73], the pIC50 in test [1] (setting [4]) is 5.07; in test [1] (setting [5]) it was 5.07; in test [1] (setting [7]) it was 3.76; in test [2] it was 4.29; in test [3] (listed as R1=Benzyl, R3=4-I—Ph, R4=H) it was 4.30; in test [3] (listed as R1=benzyl, R3=4-I—ph, R4=H), 4.00 to 4.30.
